Activity calls are given as the source filed them.
Legend:
[1] = target: T1, E3 ubiquitin-protein ligase XIAP (Homo sapiens, UniProt P98170); experiment: Counter Screen using XIAP-Bir3 for Chemical Antagonists of Bir1/2 domains of IAP-family anti-apoptotic proteins. [Related pubchem assays (depositor defined):AID1018, AID1449, AID1514, AID1638, AID1749, AID1750, AID488957, AID488963]
[2] = target: T1, E3 ubiquitin-protein ligase XIAP; experiment: XIAP antagonists, biochemical, IAP family, fluorescence polarization (AID 1018); format: functional
[3] = target: Perilipin-1/ABHD5 (Homo sapiens, UniProt O60240+Q8WTS1); experiment: Luminescence-based biochemical high throughput dose response assay for inhibitors of the interaction of the lipase co-activator protein, abhydrolase domain containing 5 (ABHD5) with perilipin-1 (PLIN1) (2K validation set). [Related pubchem assays (depositor defined):AID493027, AID493057]
[4] = target: 1-acylglycerol-3-phosphate O-acyltransferase ABHD5/Perilipin-5 (Homo sapiens, UniProt Q00G26+Q8WTS1); experiment: Luminescence-based biochemical high throughput dose response assay for inhibitors of the interaction of the lipase co-activator protein, abhydrolase domain containing 5 (ABHD5) with perilipin-5 (MLDP; PLIN5) (2K validation set). [Related pubchem assays (depositor defined):AID493035, AID493241]
[5] = system: T-cell; experiment: inhibitors of CD8+ T cell–vesicle binding, dose response, mouse 2C CD8+ T cells, flow cytometry (AID 485284); format: functional
[6] = target: T2, Protein RecA (Mycobacterium tuberculosis, UniProt P9WHJ3); experiment: Fluorescence Cell-Free Homogeneous Dose Retest to Identify Inhibitors of RecA-Intein Splicing Activity. [Related pubchem assays (depositor defined):AID2097, AID2223, AID489010, AID492950]; format: functional
T2 sequence (P9WHJ3 whole entry): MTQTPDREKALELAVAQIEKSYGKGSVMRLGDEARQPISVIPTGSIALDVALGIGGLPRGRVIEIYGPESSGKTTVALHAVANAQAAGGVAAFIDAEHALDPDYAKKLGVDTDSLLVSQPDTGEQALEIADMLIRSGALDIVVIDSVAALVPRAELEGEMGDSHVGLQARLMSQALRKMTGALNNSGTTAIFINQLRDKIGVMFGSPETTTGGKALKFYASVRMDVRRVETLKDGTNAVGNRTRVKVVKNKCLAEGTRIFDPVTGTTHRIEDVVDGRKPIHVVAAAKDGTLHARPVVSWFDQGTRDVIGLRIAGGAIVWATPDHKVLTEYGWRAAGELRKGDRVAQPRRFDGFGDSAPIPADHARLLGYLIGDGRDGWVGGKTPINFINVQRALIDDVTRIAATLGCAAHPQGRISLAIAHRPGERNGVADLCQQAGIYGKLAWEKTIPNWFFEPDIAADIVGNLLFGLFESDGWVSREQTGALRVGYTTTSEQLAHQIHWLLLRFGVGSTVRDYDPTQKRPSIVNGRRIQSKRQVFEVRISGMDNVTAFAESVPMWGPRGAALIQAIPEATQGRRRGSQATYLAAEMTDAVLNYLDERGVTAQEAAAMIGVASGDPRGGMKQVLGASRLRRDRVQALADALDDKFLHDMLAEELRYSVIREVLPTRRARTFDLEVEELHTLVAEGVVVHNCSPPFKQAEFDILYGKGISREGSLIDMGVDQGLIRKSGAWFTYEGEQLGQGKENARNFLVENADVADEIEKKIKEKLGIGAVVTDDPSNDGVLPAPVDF

[7] = target: Genome polyprotein (dengue virus type 2, UniProt P29990); experiment: Dengue-2 NS5 methyltransferase inhibitors, primary screen, biochemical, confirmation dose response (AID 588689); format: functional
[8] = system: INS1; experiment: beta cell apoptosis inhibitors, cytokine rescue, dose response, luminescence, retest (AID 449756); format: functional, cell-based; settings: Rattus norvegicus;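 also: cell death triggered by IL-1 beta plus TNF-alpha plus IFN-gamma mixture; protective hits raise ATP signal compared with cytokine alone wells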
[9] = target: T3, Replicative DNA helicase DnaB (Mycobacterium tuberculosis, UniProt P9WMR3); experiment: DnaB intein splicing inhibitors, dose response, biochemical, cell-free fluorescence (AID 449749); format: functional
T3 sequence (P9WMR3 whole entry): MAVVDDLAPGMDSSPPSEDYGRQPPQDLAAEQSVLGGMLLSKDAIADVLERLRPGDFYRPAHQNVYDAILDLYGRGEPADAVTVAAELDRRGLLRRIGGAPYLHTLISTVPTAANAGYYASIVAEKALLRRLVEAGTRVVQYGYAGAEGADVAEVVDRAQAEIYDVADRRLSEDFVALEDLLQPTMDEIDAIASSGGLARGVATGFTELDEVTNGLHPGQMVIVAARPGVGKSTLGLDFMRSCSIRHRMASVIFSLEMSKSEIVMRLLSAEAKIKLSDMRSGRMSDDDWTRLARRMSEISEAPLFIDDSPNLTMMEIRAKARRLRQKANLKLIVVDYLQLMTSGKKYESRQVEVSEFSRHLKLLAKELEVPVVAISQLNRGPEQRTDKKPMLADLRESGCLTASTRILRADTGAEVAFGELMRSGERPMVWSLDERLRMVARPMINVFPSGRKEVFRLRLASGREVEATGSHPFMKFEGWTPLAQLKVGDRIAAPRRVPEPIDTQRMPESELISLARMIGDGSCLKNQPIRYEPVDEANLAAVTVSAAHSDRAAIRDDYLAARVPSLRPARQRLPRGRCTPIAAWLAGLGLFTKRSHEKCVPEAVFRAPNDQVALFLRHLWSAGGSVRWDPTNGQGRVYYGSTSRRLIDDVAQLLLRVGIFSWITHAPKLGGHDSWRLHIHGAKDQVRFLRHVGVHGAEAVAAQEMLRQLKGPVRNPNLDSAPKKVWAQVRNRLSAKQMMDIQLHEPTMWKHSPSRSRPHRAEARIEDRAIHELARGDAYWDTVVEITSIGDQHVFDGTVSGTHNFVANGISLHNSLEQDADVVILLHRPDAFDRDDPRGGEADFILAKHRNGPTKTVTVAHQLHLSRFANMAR

[10] = Luminescence Cell-Based Dose Retest to Confirm Inhibitors of Cancer Stem Cells. [Related pubchem assays (depositor defined):AID2717, AID2721]; format: functional; settings: Homo sapiens
[11] = system: Vero; experiment: Vero cell cytotoxicity, cytotoxicity control for flavivirus capping enzyme inhibitors (AID 588742); format: functional; settings: Chlorocebus sabaeus
[12] = Intein inhibitors as potential Tuberculosis drugs, a cytotoxicity screen. [Related pubchem assays (depositor defined):AID2221, AID2223, AID434968, AID435010, AID449749, AID449750, AID489010]; format: functional
[13] = HepG2 cell cytotoxicity, dose response, cytotoxicity control, ATP luminescence, cherry-pick, activator set 2 (AID 1053143); format: functional, cell-based
[14] = target: Troponin, cardiac muscle (Homo sapiens, UniProt P19429+P45379+P63316); experiment: Fluorescence-based biochemical high throughput dose response assay for activators of the calcium sensitivity of cardiac Regulated Thin Filaments (RTF). [Related pubchem assays (depositor defined):AID493008, AID493018, AID504382, AID504383]; format: protein-complex assay
[15] = target: T4, Coagulation factor XII (Homo sapiens, UniProt P00748); experiment: Factor XIIa Dose Response Confirmation from Single Well HTS. [Related pubchem assays (depositor defined):AID701]; format: functional
T4 sequence (P00748 whole entry): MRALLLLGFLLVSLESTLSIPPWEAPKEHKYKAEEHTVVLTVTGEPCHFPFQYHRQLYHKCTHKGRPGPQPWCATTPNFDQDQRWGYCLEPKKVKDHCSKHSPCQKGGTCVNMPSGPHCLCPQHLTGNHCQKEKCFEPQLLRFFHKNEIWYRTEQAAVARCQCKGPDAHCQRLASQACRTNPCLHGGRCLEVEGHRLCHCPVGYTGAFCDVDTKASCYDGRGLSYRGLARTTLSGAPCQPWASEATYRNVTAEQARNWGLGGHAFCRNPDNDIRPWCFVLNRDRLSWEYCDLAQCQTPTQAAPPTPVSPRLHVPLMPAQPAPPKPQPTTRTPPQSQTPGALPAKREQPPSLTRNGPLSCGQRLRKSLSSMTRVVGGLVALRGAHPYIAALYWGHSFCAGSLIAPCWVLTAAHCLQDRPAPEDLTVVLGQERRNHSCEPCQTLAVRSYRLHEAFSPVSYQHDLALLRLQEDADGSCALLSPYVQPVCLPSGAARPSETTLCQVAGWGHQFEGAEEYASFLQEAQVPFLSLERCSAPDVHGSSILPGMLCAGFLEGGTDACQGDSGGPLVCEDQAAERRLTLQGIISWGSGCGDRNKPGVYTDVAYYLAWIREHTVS

[16] = target: Delta-type opioid receptor (Homo sapiens, UniProt P41143); experiment: SAR Analysis of Antagonists of the DOR Receptor using an Image-Based Assay - Set 3. [Related pubchem assays (depositor defined):AID1777, AID1785]; format: functional;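 also: U2OS cells expressing DOR1 and beta-arrestin GFP stimulated with 100 nM SNC80; imaging of GFP-tagged beta-arrestin moving into spots after receptor activation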
[17] = target: T5, Kappa-type opioid receptor (Homo sapiens, UniProt P41145); experiment: SAR analysis of Antagonists of the Kappa Opioid Receptor (KOR) using an Image-Based Assay - Set 3. [Related pubchem assays (depositor defined):AID1777, AID1785]; format: functional
[18] = target: Mu-type opioid receptor (Homo sapiens, UniProt P35372); experiment: SAR Analysis of Antagonists of the MOR Receptor using an Image-Based Assay - Set 3. [Related pubchem assays (depositor defined):AID1777, AID1785, AID1786, AID1966, AID2133, AID2136, AID2284, AID2285, AID2420]; format: functional
[19] = target: T5, Kappa-type opioid receptor; experiment: SAR analysis of small molecule antagonists of the kappa opioid receptor via a luminescent beta-arrestin assay - Set 3. [Related pubchem assays (depositor defined):AID1777, AID1778, AID1785, AID1786, AID1966, AID2133, AID2136, AID2285, AID2495]; format: functional
[20] = target: T6, CAAX prenyl protease 2 (Homo sapiens, UniProt Q9Y256); experiment: human Rce1 protease inhibitors, dose response, biochemical, yeast membranes, quenched-peptide fluorescence, cherry-pick (AID 588849)
T6 sequence (Q9Y256 whole entry): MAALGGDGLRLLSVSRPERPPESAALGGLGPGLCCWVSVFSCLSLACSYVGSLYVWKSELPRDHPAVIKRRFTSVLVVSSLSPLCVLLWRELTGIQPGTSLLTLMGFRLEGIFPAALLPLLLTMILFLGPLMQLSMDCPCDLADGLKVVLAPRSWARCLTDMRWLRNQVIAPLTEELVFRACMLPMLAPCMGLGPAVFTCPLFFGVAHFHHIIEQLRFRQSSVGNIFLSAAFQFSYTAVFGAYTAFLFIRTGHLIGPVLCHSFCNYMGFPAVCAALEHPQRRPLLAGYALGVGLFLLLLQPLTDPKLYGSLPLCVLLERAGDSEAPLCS

[21] = system: Streptococcus; experiment: Group A Streptococcus viability loss, dose response, counter-screen for streptokinase expression inhibitor project, luminescence, BacTiterGlo (AID 1915); format: functional, organism-based;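 also: potency for reduction of bacterial viability or growth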
[22] = inhibitors of intracellular T. cruzi replication, confirmation, NIH3T3 host cells, beta-gal luminescence (AID 2044); format: functional, cell-based;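 also: intracellular parasites grown in NIH/3T3 mouse fibroblasts as host cells; luminescent beta-galactosidase reporter signal from transgenic T. cruzi replicating inside host cells; inhibitors lower the luminescence signal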
[23] = cytotoxicity toward NIH3T3 fibroblasts, dose response, counter-screen, cell-based, ATP luminescence, mouse fibroblasts (AID 2010); format: functional;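 also: cells exposed to compound for about 90 hours before reading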
[24] = system: Streptococcus sp. 'group A'; experiment: growth inhibition of control SK(-) GAS strain, dose response, counter-screen for streptokinase expression inhibitor project, luminescence, kanamycin, BacTiterGlo, confirmation (AID 1900); format: functional, organism-based
[25] = mammalian cell cytotoxicity, dose response, cytotoxicity control, plate reader, cherry-pick samples (AID 504397); format: functional, cell-based

CC(=O)NCCc1nc2ccccc2n1CCc1ccccc1
IC50 [1]: > 100 µM (inactive) | IC50 [2]: > 100 µM (not active)

COC(=O)[C@@H](N)CS
IC50 [3]: 7.34 µM (active) | IC50 [4]: 4.64 µM (active)

CCOC(=O)c1c(C=O)c2ccccc2n1CC
EC50 [5]: 27.8 µM (inactive)

COC(=O)c1sc(-c2ccc(C(C)(C)C)cc2)cc1NC(=O)/C=C/C(=O)O
EC50 [6]: 0.701 µM (active) | IC50 [7]: 65.2 µM (active) | AC50 [8]: 4.68 µM (active) | AC50 [9]: 2.55 µM (active) | AC50 [10]: 3.96 µM (active) | CC50 [11]: 14.1 µM (active) | CC50 [12]: 11.5 µM (active) | AC50 [13]: 23.4 µM (active)

Cc1ccnc2nc(C(=O)OCC(=O)NCCc3ccccc3)nn12
EC50 [14]: > 71.5 µM (inactive)

CC(C)C(C)(C#N)NC(=O)CSc1nnc(C(F)(F)F)n1C (stereo not given)
IC50 [15]: > 50 µM (inactive)

CCc1ccc(S(=O)(=O)NCc2ccc(C(=O)NCCN(CC)Cc3ccccc3)cc2)cc1
IC50 [16]: > 32 µM (inactive) | IC50 [17]: 1.99 µM (active) | IC50 [18]: 19.5 µM (inactive) | IC50 [19]: 14.4 µM (inactive)

C/C(Cl)=C\Cn1c(O)c(/N=N/C(=N)S)c2cc(Br)ccc21
AC50 [20]: 12.6 µM (active) | EC50 [21]: 3.93 µM (active) | EC50 [22]: 1.32 µM (active) | EC50 [23]: > 30 µM (not active) | EC50 [24]: 1.26 µM (active) | AC50 [25]: 281 µM (active)

From ChEMBL document CHEMBL1201862, “PubChem BioAssay data set” (2004)
